Assay results as given in patent publication US20260256751A1, “COMBINATION OF BETA-2-ADRENERGIC RECEPTOR AGONISTS AND GLP-1 RECEPTOR AGONISTS FOR USE IN TREATING HYPERGLYCAEMIA” (ATROGI AB, priority 2023, published 2026).

How the values were obtained:
[1] = system: differentiated L6-myotubes; assay: Glucose uptake screen (Biological example 1 of WO 2019/053427); assay type: cell-based; settings: compound at 10 μM, activity relative to isoproterenol at 10 μM; for Emax at 10 µM: read-out: Biological example 1 of WO 2019/053427 (GU)
Summary of the method: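 Uptake was read out as ^3H-2-deoxyglucose (50 nM, 10 min) radioactivity in NaOH lysates. Beforehand, overnight-starved, differentiated L6 myotubes received compound at 1×10^−5 M with ICI-118551 present for 1 h 40 min, followed by fresh agonist for a further 20 min in glucose-free medium.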

[2] = system: differentiated L6-myotubes; assay: cAMP production relative to isoprenaline (Biological example 2 of WO 2019/053427); assay type: cell-based; settings: compound at 10 μM, activity relative to isoproterenol at 10 μM; for Emax at 10 µM: 0.25 h
Summary of the method: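 Values are cAMP levels relative to isoprenaline at equal concentration (final 1×10^−5 M for both). Stimulation lasted 15 min in differentiated L6 myotubes, using HBSS buffer (pH 7.4) containing 1 mM IBMX, 5 mM HEPES and 1% BSA.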

## CC(C)(NC[C@H](O)c1cccc(F)c1)[C@H]1CC[C@H](C(=O)O)CC1 [Compound 368, (1R,4r)-8-[(R)-2-(m-fluorophenyl)-2-hydroxyethylamino]-7-hydroxy-p-menthan-7-one]
[1]
  Emax at 10 µM: 25 to 50%
[2]
  Emax at 10 µM: < 25%

## CS(=O)(=O)N(Cc1ccccc1)[C@H]1CC[C@H](C[C@@H]2CC[C@H]([C@@H](O)c3cccc(F)c3)N2)CC1 [Compound 503, (S)-[(2R,5S)-5-({(1r,4S)-4-[(benzyl)-N-mesylamino]cyclohexyl}methyl)-2-pyrrolidinyl](m-fluorophenyl)methanol]
[1]
  Emax at 10 µM: < 25%
[2]
  Emax at 10 µM: < 25%

## CC(C)(C[C@H]1CC[C@@H](S(N)(=O)=O)CC1)NC[C@H](O)c1cncc(F)c1 [Compound 519, (1S,4s)-4-{2-[(R)-2-(5-fluoro-3-pyridyl)-2-hydroxyethylamino]-2-methylpropyl}cyclohexanesulfonamide]
[1]
  Emax at 10 µM: > 75%
[2]
  Emax at 10 µM: < 25%

## CCCCNCC(O)c1ccc(F)c(NC(C)=O)c1F (stereo not drawn) [Compound 42, N-{3-[2-(butylamino)-1-hydroxyethyl]-2,6-difluorophenyl}acetamide]
[1]
  Emax at 10 µM: 25 to 50%
[2]
  Emax at 10 µM: < 25%

## CCCC(C)NCC(O)c1cc(Cl)c(N)c(Cl)c1 (stereo not drawn) [Compound 22, 1-(4-amino-3,5-dichlorophenyl)-2-(1-methylbutylamino)-1-ethanol]
[1]
  Emax at 10 µM: > 75%
[2]
  Emax at 10 µM: 50 to 75%

## CCC[C@@H]1CC[C@H]([C@@H](O)c2cccc(F)c2)N1 [Compound 126, (S)-[(2R,5R)-5-propyl-2-pyrrolidinyl](m-fluorophenyl)methanol]
[1]
  Emax at 10 µM: 25 to 50%
[2]
  Emax at 10 µM: < 25%

## CCC[C@@H]1CCC[C@H]([C@@H](O)c2cccc(F)c2)N1 [Compound 60, (S)-[(2R,6R)-6-propyl-2-piperidyl](m-fluorophenyl)methanol]
[1]
  Emax at 10 µM: 25 to 50%
[2]
  Emax at 10 µM: < 25%

## O[C@@H](CNC[C@H]1CC[C@H](O)CC1)c1cccc(F)c1 [Compound 272, (R)-1-(m-fluorophenyl)-2-({[(1r,4R)-4-hydroxycycloehxyl]meth-yl}amino)-1-ethanol]
[1]
  Emax at 10 µM: 25 to 50%
[2]
  Emax at 10 µM: < 25%

## CNS(=O)(=O)[C@H]1CC[C@H](CC(C)(C)NC[C@H](O)c2cncc(F)c2)CC1 [Compound 478, (R)-2-{1,1-dimethyl-2-[(1r,4R)-4-(methylaminosulfonyl)cyclohexyl]ethylamino}-1-(5-fluoro-3-pyridyl)-1-ethanol]
[1]
  Emax at 10 µM: 25 to 50%
[2]
  Emax at 10 µM: < 25%

## CC1(C)CC[C@H]([C@@H](O)c2cccc(O)c2)N1 [Compound 111, m-{(S)-[(R)-5,5-dimethyl-2-pyrrolidinyl]hydroxymeth-yl}phenol]
[1]
  Emax at 10 µM: 50 to 75%
[2]
  Emax at 10 µM: < 25%

## CC1(C)CC[C@H]([C@@H](O)c2ccc(F)cc2)N1 [Compound 172, (S)-[(R)-5,5-dimethyl-2-pyrrolidinyl](p-fluorophenyl)methanol]
[1]
  Emax at 10 µM: < 25%
[2]
  Emax at 10 µM: < 25%

## CNS(=O)(=O)[C@H]1CC[C@@H](CC(C)(C)NC[C@H](O)c2cncc(F)c2)CC1 [Compound 495, (R)-2-{1,1-dimethyl-2-[(1s,4S)-4-(methylaminosulfonyl)cyclohexyl]ethylamino}-1-(5-fluoro-3-pyridyl)-1-ethanol]
[1]
  Emax at 10 µM: 50 to 75%
[2]
  Emax at 10 µM: < 25%

## CO[C@H]1CC[C@@H](CCCNC[C@H](O)c2cccc(F)c2)CC1 [Compound 258, (R)-1-(m-fluorophenyl)-2-{3-[(1s,4R)-4-methoxycyclohexyl]propyl-amino}-1-ethanol]
[1]
  Emax at 10 µM: > 75%
[2]
  Emax at 10 µM: 50 to 75%

## CCC[C@@H]1CC[C@H]([C@H](O)c2cncc(F)c2)N1 [Compound 161]
[1]
  Biological example 1 of WO 2019/053427 (GU): + (between 50 and 25%)
[2]
  Biological example of WO 2019/053427 (cAMP): − (less than 25%)

## CCS(=O)(=O)N[C@H]1CC[C@H](CC(C)(C)NC[C@H](O)c2cncc(F)c2)CC1 [Compound 525, (R)-2-{1,1-dimethyl-2-[(1r,4R)-4-(ethylsulfonylamino)cyclohexyl]ethylamino}-1-(5-fluoro-3-pyridyl)-1-ethanol]
[1]
  Emax at 10 µM: 50 to 75%
[2]
  Emax at 10 µM: < 25%
